This note sets out measurements from patent US8765802B2, “Kinase inhibitors, compositions thereof, and methods of use therewith” (Provid Pharmaceuticals, Inc., priority 2007, dated 2014).

The EC50 is the concentration at which the effect is half-maximal. Read a high EC50 as weaker potency.

The target of the assay is T1, Chk2 (Homo sapiens, UniProt O96017).
T1 construct: made in house; host or cells: E. coli BL21 Star (Invitrogen)
T1 sequence (O96017 whole entry): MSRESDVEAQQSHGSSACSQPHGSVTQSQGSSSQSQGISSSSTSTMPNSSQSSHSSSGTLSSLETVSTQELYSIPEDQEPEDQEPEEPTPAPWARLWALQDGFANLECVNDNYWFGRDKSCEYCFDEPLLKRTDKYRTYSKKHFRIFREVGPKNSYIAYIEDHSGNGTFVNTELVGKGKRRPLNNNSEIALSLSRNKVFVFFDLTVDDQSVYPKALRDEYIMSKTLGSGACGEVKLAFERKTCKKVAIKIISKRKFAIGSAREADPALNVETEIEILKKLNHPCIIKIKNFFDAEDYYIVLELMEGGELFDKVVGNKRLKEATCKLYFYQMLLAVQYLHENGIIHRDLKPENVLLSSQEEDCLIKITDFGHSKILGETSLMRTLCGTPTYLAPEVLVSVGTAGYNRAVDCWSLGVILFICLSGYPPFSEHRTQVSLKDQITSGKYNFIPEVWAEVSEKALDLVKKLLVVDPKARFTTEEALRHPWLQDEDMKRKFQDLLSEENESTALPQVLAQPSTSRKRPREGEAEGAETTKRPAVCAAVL
As to the kind of experiment: Chk2 inhibitor IMAP assay (high-throughput Chk2 screening assay). It counts as biochemical. Conditions: IMAP fluorescence polarization assay, 10 μM ATP. How it is done:
Compounds set forth in Table 1 were tested in the Chk2 inhibitor IMAP assay described herein in Example 6.84. […] The letters given for the Chk2 EC50 values in Table 1 represent the following ranges: A=<100 nM; B=100-300 nM; C=300-1000 nM; D=1-10 μM; and E>10 μM.
Compounds can be screened for Chk2 inhibitory activity using a high-throughput screening assay based in the immobilized metal ion affinity-based fluorescence polarization (IMAP) assay developed by Molecular Devices. This assay is based on the high affinity binding of phosphate by immobilized metal (MIII) coordination complexes on nanoparticles. A fluorescein-labeled peptide substrate is used as the substrate for the kinase activity of Chk2 in the assay. The IMAP binding reagent stops the kinase reaction. The binding of the binding reagent results in a change in the rate of molecular motion of the peptide and causes an increase in the fluorescence polarization value observed for the fluorescein label attached to the end of the peptide. Thus, inhibition of Chk2 would result in a decrease in fluorescence polarization compared to control.
A specific protocol for screening Compounds for Chk2 inhibitory activity follows.
A Compound is supplied at 1 mM in 0.5 μl DMSO on 384 well plates (such as Greiner or Corning). After thawing, 5 μl DMSO is added to the drug plate. The drug plate is then incubated for 10 minutes to solubilize the Compound. An additional 19.5 μl of reaction buffer (10× stock prepared using 100 mM Tris-HCl, 100 mM MgCl2, 1% BSA, pH 7.2, stored at 4° C.)+1 mM DDT is added to bring the Compound to 4× final concentration. A positive control is also prepared at 4× final concentration. The following control wells are used: less enzyme control (all reagents except enzyme; 5 μl/well), less Compound control (all reagents except Compound; 5 μl/well), positive control (all reagents plus staurosporine at a final concentration of 5 μM; 5 μl/well).
Reagents are then added in the following order to give the following final concentration: 2.5 μl ATP/Chk2tide (Molecular Devices) (10 μM/100 nM final concentration), 1.25 μl Compound (5 μM final concentration inf 5.5% DMSO), and 1.25 μl Chk2 (1:500, 2.4 μg/mL final concentration).
Plates are covered and incubated at room temperature for 60 minutes.
IMAP binding reagent (Molecular Devices) is diluted 1:400 into binding buffer (Molecular Devices). 15 μl of this solution is then added to all wells and the plates are covered and incubated for 30 minutes.
Plates are read using a Tecan Ultra under the fluorescence polarization mode. Gain is set to the less enzyme and less Compound wells for each plate. Excitation 485 nm, emmission 535 nm, Z position 12519 and flashes 5 are used as settings. Raw data from the Tecan reader is imported into an access database for analysis.
The compound `CCC/C(=N/NC(=N)N)c1ccc(NC(=O)c2cc3cc(OC)ccc3[nH]2)cc1` (single isomer, unassigned) [Compound 24] displayed an EC50 below 100 nM.
Under `CCC/C(=N/NC(=N)N)c1ccc(NC(=O)c2cc3cc(OC)ccc3[nH]2)cc1` (single isomer, unassigned) [Compound 26] stands 300 to 1000 nM.
As for `CCCC(=NNC(=N)N)c1ccc2[nH]c(C(=O)Nc3ccc4cc[nH]c4c3)cc2c1` (single isomer, unassigned) [Compound 112], the figure is below 100 nM.
Turning to `CCCC(=NNC(=N)N)c1ccc2[nH]c(C(=O)Nc3ccc4cc[nH]c4c3)cc2c1` (single isomer, unassigned) [Compound 113], the half-maximal effective concentration (EC50) was 300 to 1000 nM.
Under `CC(C)CC(=NNC(=N)N)c1ccc2[nH]c(C(=O)Nc3ccc4cc[nH]c4c3)cc2c1` (single isomer, unassigned) [Compound 123] stands below 100 nM; under `CC(C)CC(=NNC(=N)N)c1ccc2[nH]c(C(=O)Nc3ccc4cc[nH]c4c3)cc2c1` (single isomer, unassigned) [Compound 124], 1000 to 10000 nM.
As for `CCC/C(=N\NC(=N)N)c1ccc(NC(=O)Nc2ccc(/C(C)=N/NC(=N)N)cc2)cc1` [Compound 1], the figure is below 100 nM; as for `C/C(=N\NC(=N)N)c1ccc(NC(=O)c2c[nH]c3ccccc23)cc1` [Compound 2], 1000 to 10000 nM.
Under `CCCC(=NNC(=N)N)c1ccc(NC(=O)Nc2ccc(C(CCC)=NNC(=N)N)cc2)cc1` [Compound 3] stands below 100 nM; under `C/C(=N\NC(=N)N)c1ccc(NC(=O)Nc2ccc(/C(C)=N/NC(=N)N)c(C)c2)cc1` [Compound 4], 100 to 300 nM.
In turn, `CC(=NNC(=N)N)c1ccc(NC(=O)Nc2ccc3c(c2)CCC(C)C3=NNC(=N)N)cc1` (stereo not drawn) [Compound 5] had an EC50 of 300 to 1000 nM.
With `CC(=NNC(=N)N)c1ccc(NC(=O)Nc2ccc3c(c2)CCC3=NNC(=N)N)cc1` [Compound 6], the EC50 lay within 300 to 1000 nM.
Under `C/C(=N\NC(=N)N)c1ccc(NC(=O)c2cc3ccccc3[nH]2)cc1` [Compound 7] stands 300 to 1000 nM.
With `C/C(=N\NC(=N)N)c1ccc(NC(=O)c2cc3ccccc3o2)cc1` [Compound 8], the EC50 is 300 to 1000 nM.
Consider `C/C(=N\NC(=N)N)c1ccc(NC(=O)c2cc3cc(C)ccc3[nH]2)cc1` [Compound 9], for which the EC50 lay within 100 to 300 nM.
As for `COc1ccc2[nH]c(C(=O)Nc3ccc(/C(C)=N/NC(=N)N)cc3)cc2c1` [Compound 10], the figure is below 100 nM; as for `C/C(=N\NC(=N)N)c1ccc(NC(=O)c2cc3cc(O)ccc3[nH]2)cc1` [Compound 11], 300 to 1000 nM; as for `C/C(=N/NC(=N)N)c1ccc(NC(=O)Nc2ccc(NC(=O)/C(C)=N/NC(=N)N)cc2)cc1` [Compound 12], 300 to 1000 nM.
As for `C/C(=N/N=C(\N)c1ccccn1)c1ccc(NC(=O)Nc2ccc(/C(C)=N/N=C(\N)c3ccccn3)cc2)cc1` [Compound 13], the figure is 300 to 1000 nM.
Under `C/C(=N/NC(=N)N)c1ccc(NC(=O)Nc2ccc(/C(C)=N/N=C(\N)c3ccccn3)cc2)cc1` [Compound 14] stands 300 to 1000 nM.
Consider `C/C(=N\NC1=NCCN1)c1ccc(NC(=O)Nc2ccc(/C(C)=N/NC3=NCCN3)cc2)cc1` [Compound 15], for which the EC50 was below 100 nM.
Under `C/C(=N\NC(=N)N)c1ccc(NC(=O)Nc2ccc(/C(C)=N/NC3=NCCN3)cc2)cc1` [Compound 16] stands below 100 nM; under `C/C(=N\NC(=N)N)c1ccc(NC(=O)c2cc3cc(/C(C)=N/NC(=N)N)ccc3[nH]2)cc1` [Compound 17], below 100 nM.
Compound `COc1ccc2[nH]c(C(=O)Nc3ccc(/C(C)=N/NC4=NCCN4)cc3)cc2c1` [Compound 19] registered an EC50 of 100 to 300 nM.
Under `C/C(=N\NC(=N)N)c1ccc(NC(=O)Nc2ccc(C#N)cc2)cc1` [Compound 20] stands below 100 nM; under `CNC(=O)Oc1ccc2[nH]c(C(=O)Nc3ccc(/C(C)=N\NC(=N)N)cc3)cc2c1` [Compound 21], 100 to 300 nM; under `C/C(=N\NC1=NCCN1)c1ccc(NC(=O)c2cc3cccc([N+](=O)[O-])c3[nH]2)cc1` [Compound 22], below 100 nM.
